Results published in PubChem BioAssay AID2060620 (Molecular Pharmacology Branch, DTP, NCI, 2025).
Values joined by “and” are separate entries in the source; they are usually repeats but may differ in a detail not shown here. Identical values can stand only once.

Tested on: 328373-195-R-J1-PDC complex spheroids, viability % test/control
Assay: Anticancer human tumor 328373-195-R-J1-PDC patient-derived head and neck squamous carcinoma cell line growth inhibition [CLK]
Settings: for viability, T/C: stronger effect = lower value
Outline: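 Patient-derived tumor cells grown as complex spheroids with HUVEC endothelial cells and mesenchymal stem cells, treated with drug combinations. Concentrations descend in half-log steps from near clinical Cmax, or from 10 microM if Cmax unknown.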
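Note: spheroids exposed to the agents for 7 days.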

Q: With `COc1ccc([C@@H](O)c2cc(-c3ncnc4cc(N5CCOCC5)ccc34)c(F)cc2Cl)nn1` as the compound, how does the viability, T/C (compound 0.0316 µM) read?
A: Its viability, T/C is 92.4% and 111%.

Q: What about the viability, T/C (compound 0.1 µM) of the same compound?
A: The viability, T/C was 91.4% and 93%.

Q: And the viability, T/C (compound 0.316 µM)?
A: Its viability, T/C is 88% and 80%.

Q: What about the viability, T/C (compound 1 µM) of the same compound?
A: The viability, T/C was 86.8% and 84.3%.

Q: What about the viability, T/C (compound 3.16 µM) of the same compound?
A: The viability, T/C was 76% and 71.4%.

Q: What about the viability, T/C (compound 10 µM) of the same compound?
A: Its viability, T/C is 48.9% and 47.2%.

Q: And the IC50 (curve of compound)?
A: The IC50 was 9710 nM and > 10000 nM.

Q: For `CC(=O)O[C@H]1C(=O)[C@@]2(C)[C@H]([C@H](OC(=O)c3ccccc3)[C@]3(O)C[C@H](OC(=O)[C@H](O)[C@@H](NC(=O)c4ccccc4)c4ccccc4)C(C)=C1C3(C)C)[C@]1(OC(C)=O)CO[C@@H]1C[C@@H]2O` + CNC(=O)c1ccc(Nc2nc(OC3CCCC3)c3c(-c4ccc5nc(C)oc5c4)c[nH]c3n2)c(OC)c1, which IC50 (curve of first compound, second compound 0.0316 µM) is on record?
A: Its IC50 is < 31.6 nM.

Q: What about the IC50 (curve of first compound, second compound 0.1 µM) of the same compound?
A: Its IC50 is < 31.6 nM.

Q: And the IC50 (curve of first compound, second compound 0.316 µM)?
A: Its IC50 is < 31.6 nM.

Q: And the IC50 (curve of first compound, second compound 1 µM)?
A: Its IC50 is < 31.6 nM.

Q: And the IC50 (curve of first compound, second compound 3.16 µM)?
A: The IC50 was < 31.6 nM.

Q: What about the IC50 (curve of first compound, second compound 10 µM) of the same compound?
A: The IC50 was < 31.6 nM.

Q: And the viability, T/C (second compound 0.0316 µM, first compound 0.0316 µM)?
A: Its viability, T/C is 11.7%.

Q: What about the viability, T/C (second compound 0.0316 µM, first compound 0.1 µM) of the same compound?
A: Its viability, T/C is 7.56%.

Q: And the viability, T/C (second compound 0.0316 µM, first compound 0.316 µM)?
A: Its viability, T/C is 14%.

Q: What about the viability, T/C (second compound 0.0316 µM, first compound 1 µM) of the same compound?
A: The viability, T/C was 13.7%.

Q: And the viability, T/C (second compound 0.0316 µM, first compound 3.16 µM)?
A: Its viability, T/C is 12.7%.

Q: And the viability, T/C (second compound 0.0316 µM, first compound 10 µM)?
A: Its viability, T/C is 22%.

Q: What about the viability, T/C (second compound 0.1 µM, first compound 0.0316 µM) of the same compound?
A: The viability, T/C was 20.2%.

Q: And the viability, T/C (second compound 0.1 µM, first compound 0.1 µM)?
A: The viability, T/C was 22.9%.

Q: What about the viability, T/C (second compound 0.1 µM, first compound 0.316 µM) of the same compound?
A: The viability, T/C was 18.8%.

Q: And the viability, T/C (second compound 0.1 µM, first compound 1 µM)?
A: Its viability, T/C is 26.1%.

Q: What about the viability, T/C (second compound 0.1 µM, first compound 3.16 µM) of the same compound?
A: Its viability, T/C is 25.2%.

Q: What about the viability, T/C (second compound 0.1 µM, first compound 10 µM) of the same compound?
A: Its viability, T/C is 29.1%.

Q: What about the viability, T/C (second compound 0.316 µM, first compound 0.0316 µM) of the same compound?
A: The viability, T/C was 21.1%.

Q: And the viability, T/C (second compound 0.316 µM, first compound 0.1 µM)?
A: Its viability, T/C is 23.5%.

Q: What about the viability, T/C (second compound 0.316 µM, first compound 0.316 µM) of the same compound?
A: Its viability, T/C is 24.7%.

Q: And the viability, T/C (second compound 0.316 µM, first compound 1 µM)?
A: The viability, T/C was 29.3%.

Q: And the viability, T/C (second compound 0.316 µM, first compound 3.16 µM)?
A: Its viability, T/C is 32.1%.

Q: What about the viability, T/C (second compound 0.316 µM, first compound 10 µM) of the same compound?
A: Its viability, T/C is 29.8%.

Q: What about the viability, T/C (second compound 1 µM, first compound 0.0316 µM) of the same compound?
A: The viability, T/C was 21%.

Q: What about the viability, T/C (second compound 1 µM, first compound 0.1 µM) of the same compound?
A: The viability, T/C was 24%.

Q: And the viability, T/C (second compound 1 µM, first compound 0.316 µM)?
A: Its viability, T/C is 27%.

Q: And the viability, T/C (second compound 1 µM, first compound 1 µM)?
A: The viability, T/C was 30.8%.

Q: And the viability, T/C (second compound 1 µM, first compound 3.16 µM)?
A: The viability, T/C was 36.7%.

Q: And the viability, T/C (second compound 1 µM, first compound 10 µM)?
A: Its viability, T/C is 28%.

Q: And the viability, T/C (second compound 3.16 µM, first compound 0.0316 µM)?
A: Its viability, T/C is 22.2%.

Q: What about the viability, T/C (second compound 3.16 µM, first compound 0.1 µM) of the same compound?
A: The viability, T/C was 27.2%.

Q: What about the viability, T/C (second compound 3.16 µM, first compound 0.316 µM) of the same compound?
A: Its viability, T/C is 29.8%.

Q: What about the viability, T/C (second compound 3.16 µM, first compound 1 µM) of the same compound?
A: The viability, T/C was 32.7%.

Q: What about the viability, T/C (second compound 3.16 µM, first compound 3.16 µM) of the same compound?
A: Its viability, T/C is 37.1%.

Q: And the viability, T/C (second compound 3.16 µM, first compound 10 µM)?
A: The viability, T/C was 33.9%.

Q: And the viability, T/C (second compound 10 µM, first compound 0.0316 µM)?
A: The viability, T/C was 20%.

Q: What about the viability, T/C (second compound 10 µM, first compound 0.1 µM) of the same compound?
A: Its viability, T/C is 28.6%.

Q: What about the viability, T/C (second compound 10 µM, first compound 0.316 µM) of the same compound?
A: The viability, T/C was 30.5%.

Q: And the viability, T/C (second compound 10 µM, first compound 1 µM)?
A: Its viability, T/C is 36.7%.

Q: And the viability, T/C (second compound 10 µM, first compound 3.16 µM)?
A: The viability, T/C was 42.3%.

Q: And the viability, T/C (second compound 10 µM, first compound 10 µM)?
A: The viability, T/C was 36%.
